Experimental data as given in patent publication US20150031674A1, “SERINE/THREONINE KINASE INHIBITORS” (GENENTECH, INC., priority 2013, published 2015).

Target: human recombinant PAK1-KD protein (Homo sapiens, UniProt Q13153)
Test: PAK1-KD (Kinase Domain) IC50 Zlyte Assay (FRET peptide substrate phosphorylation)
Settings: Z'-LYTE, Biological Example 1

human recombinant PAK1-KD protein, sequence (Q13153 270-521 limits assumed): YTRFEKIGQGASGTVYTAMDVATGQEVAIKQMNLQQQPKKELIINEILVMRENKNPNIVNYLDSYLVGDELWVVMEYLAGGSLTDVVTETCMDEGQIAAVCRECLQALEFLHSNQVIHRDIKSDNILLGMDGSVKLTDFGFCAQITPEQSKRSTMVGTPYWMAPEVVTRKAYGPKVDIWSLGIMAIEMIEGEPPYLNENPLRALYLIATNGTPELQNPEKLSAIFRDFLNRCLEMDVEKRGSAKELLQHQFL

| SMILES | Ki [nM] |
| --- | --- |
| CNc1ncc2cc(-c3ccc(-c4cncc(C)n4)cc3Cl)c(=O)n(CCC3CCNC3=O)c2n1 (single isomer, unassigned) [Example I-103, 6-[2-Chloro-4-(6-methylpyrazin-2-yl)phenyl]-2-(methylamino)-8-[2-(2-oxopyrrolidin-3-yl)ethyl]pyrido[2,3-d]pyrimidin-7-one] | 19 |
| CCNc1ncc2cc(-c3ccc(-c4cncc(C)n4)cc3Cl)c(=O)n(CCC3CCNC(=O)C3)c2n1 (stereo not shown) [Example I-53, 6-[2-chloro-4-(6-methylpyrazin-2-yl)phenyl]-2-(ethylamino)-8-[2-(2-oxo-4-piperidyl)ethyl]pyrido[2,3-d]pyrimidin-7-one] | 96.2 |
| CNc1ncc2cc(-c3ccc(-c4cccc(C)n4)cc3C)c(=O)n(CC(=O)N3CCNCC3)c2n1 [Example I-95, 2-(Methylamino)-6-[2-methyl-4-(6-methyl-2-pyridyl)phenyl]-8-(2-oxo-2-piperazin-1-yl-ethyl)pyrido[2,3-d]pyrimidin-7-one] | 27.3 |
| CCNc1ncc2cc(-c3ccc(-c4cccc(C)n4)cc3Cl)c(=O)n(CCS(=O)(=O)C3CNC3)c2n1 [Example I-160, 8-[2-(azetidin-3-ylsulfonyl)ethyl]-6-[2-chloro-4-(6-methyl-2-pyridyl)phenyl]-2-(ethylamino)pyrido[2,3-d]pyrimidin-7-one] | 10.3 |
| Cc1cncc(-c2ccc(-c3cc4cnc(NCC(F)F)nc4n(CCOC4CNC4)c3=O)c(Cl)c2)n1 [Example I-47, 8-[2-(azetidin-3-yloxy)ethyl]-6-[2-chloro-4-(6-methylpyrazin-2-yl)phenyl]-2-(2,2-difluoroethylamino)pyrido[2,3-d]pyrimidin-7-one] | 25.2 |
| CCNc1ncc2cc(-c3ccc(-c4cccc(C)n4)cc3C)c(=O)n(C3COC4(CCNC4)C3)c2n1 (stereo not shown) [Example I-122, 2-(Ethylamino)-6-[2-methyl-4-(6-methyl-2-pyridyl)phenyl]-8-(1-oxa-7-azaspiro[4.4]nonan-3-yl)pyrido[2,3-d]pyrimidin-7-one] | 4.5 |
| CNc1ncc2cc(-c3ccc(-c4csc(C)n4)cc3Cl)c(=O)n(CCCN)c2n1 [Example I-140, 8-(3-aminopropyl)-6-[2-chloro-4-(2-methylthiazol-4-yl)phenyl]-2-(methylamino)pyrido[2,3-d]pyrimidin-7-one] | 8.06 |
| CCNc1ncc2cc(-c3ccc(-c4cncc(C)n4)cc3Cl)c(=O)n(C(C)COC3CNC3)c2n1 (single isomer, unassigned) [Example I-118, 8-[2-(azetidin-3-yloxy)-1-methyl-ethyl]-6-[2-chloro-4-(6-methylpyrazin-2-yl)phenyl]-2-(ethylamino)pyrido[2,3-d]pyrimidin-7-one] | 18.3 |
| CNc1ncc2cc(-c3ccc(-c4cccc(C)n4)cc3Cl)c(=O)n(CCC3CNCCO3)c2n1 (single isomer, unassigned) [Example I-124, 6-(2-Chloro-4-(6-methylpyridin-2-yl)phenyl)-2-(methylamino)-8-(2-(morpholin-2-yl)ethyl)pyrido[2,3-d]pyrimidin-7(8H)-one] | 1.5 |
| CNc1ncc2cc(-c3ccc(-c4cncc(C)n4)cc3Cl)c(=O)n(C[C@H]3OC[C@H](N)CO3)c2n1 [Example I-145, 8-[(5-Amino-1,3-dioxan-2-yl)methyl]-6-[2-chloro-4-(6-methylpyrazin-2-yl)phenyl]-2-(methylamino)pyrido[2,3-d]pyrimidin-7-one] | 8.54 |
| CCNc1ncc2cc(-c3ccc(-c4cccc(C)n4)cc3C)c(=O)n(CC(=O)N3CCNCC3)c2n1 [Example I-93, 2-(Ethylamino)-6-[2-methyl-4-(6-methyl-2-pyridyl)phenyl]-8-(2-oxo-2-piperazin-1-yl-ethyl)pyrido[2,3-d]pyrimidin-7-one] | 29.1 |
| CCNc1ncc2cc(-c3ccc(-c4cncc(C)n4)cc3Cl)c(=O)n(C3COC4(CCNCC4)C3)c2n1 (stereo not shown) [Example I-59, 6-(2-Chloro-4-(6-methylpyrazin-2-yl)phenyl)-2-(ethylamino)-8-(1-oxa-8-azaspiro[4.5]decan-3-yl)pyrido[2,3-d]pyrimidin-7(8H)-one] | 24.4 |
| CNc1ncc2cc(-c3ccc(-c4ncn(C)n4)cc3Cl)c(=O)n(C[C@H]3CNCCO3)c2n1 [Example I-192, 6-[2-chloro-4-(1-methyl-1 2 4-triazol-3-yl)phenyl]-2-(methylamino)-8-[[(2R)-morpholin-2-yl]methyl]pyrido[2,3-d]pyrimidin-7-one] | 4400 |
| Cc1cccc(-c2ccc(-c3cc4cnc(NC5COC5)nc4n(CCS(N)(=O)=O)c3=O)c(C)c2)n1 [Example I-166] | 17 |
| CNc1ncc2cc(-c3ccc(-c4cncc(C)n4)cc3Cl)c(=O)n(C3CCS(=N)(=O)CC3)c2n1 (stereo not shown) [Example I-181, 6-[2-chloro-4-(6-methylpyrazin-2-yl)phenyl]-8-(1-imino-1-oxo-thian-4-yl)-2-(methylamino)pyrido[2,3-d]pyrimidin-7-one] | 110 |
| CNc1ncc2cc(-c3ccc(-c4cccc(C)n4)cc3Cl)c(=O)n(C[C@H]3[C@@H]4CN(C)C[C@@H]43)c2n1 [Example I-176, 6-[2-chloro-4-(6-methyl-2-pyridyl)phenyl]-2-(methylamino)-8-[[(1R,5S)-3-methyl-3-azabicyclo[3.1.0]hexan-6-yl]methyl]pyrido[2,3-d]pyrimidin-7-one] | 11 |
| Cc1cccc(-c2ccc(-c3cc4cnc(NC5COC5)nc4n(CCC4CNCCO4)c3=O)c(C)c2)n1 (single isomer, unassigned) [Example I-113, 6-(2-Methyl-4-(6-methylpyridin-2-yl)phenyl)-8-(2-(morpholin-2-yl)ethyl)-2-(oxetan-3-ylamino)pyrido[2,3-d]pyrimidin-7(8H)-one] | 1.7 |
| CCNc1ncc2cc(-c3ccc(-c4cncc(C)n4)cc3Cl)c(=O)n(CCN3CCN(C4COC4)CC3)c2n1 [Example I-23, 6-(2-chloro-4-(6-methylpyrazin-2-yl)phenyl)-2-(ethylamino)-8-(2-(4-(oxetan-3-yl)piperazin-1-yl)ethyl)pyrido[2,3-d]pyrimidin-7(8H)-one] | 136 |
| CNc1ncc2cc(-c3ccc(-c4cncc(C)n4)cc3Cl)c(=O)n(CC(=O)NCCO)c2n1 [Example I-85, 2-[6-[2-Chloro-4-(6-methylpyrazin-2-yl)phenyl]-2-(methylamino)-7-oxo-pyrido[2,3-d]pyrimidin-8-yl]-N-(2-hydroxyethyl)acetamide] | 92.9 |
| CNc1ncc2cc(-c3ccc(-c4cncc(C)n4)cc3Cl)c(=O)n(CC(=O)N[C@H]3CCNC3)c2n1 [Example I-142, 2-[6-[2-chloro-4-(6-methylpyrazin-2-yl)phenyl]-2-(methylamino)-7-oxo-pyrido[2,3-d]pyrimidin-8-yl]-N-[(3S)-pyrrolidin-3-yl]acetamide] | 14 |
| CCNc1ncc2cc(-c3ccc(-c4cncc(C)n4)cc3Cl)c(=O)n(CCOC3CC(N)C3)c2n1 (stereo not shown) [Example I-117, 8-(2-(3-Aminocyclobutoxy)ethyl)-6-(2-chloro-4-(6-methylpyrazin-2-yl)phenyl)-2-(ethylamino)-pyrido[2,3-d]pyrimidin-7(8H)-one] | 3.7 |
| CNc1ncc2cc(-c3ccc(-c4cncc(C)n4)cc3Cl)c(=O)n(CCCCN)c2n1 [Compound I-42, 8-(4-aminobutyl)-6-[2-chloro-4-(6-methylpyrazin-2-yl)phenyl]-2-(methylamino)pyrido[2,3-d]pyrimidin-7-one] | 23.2 |
